Results taken from PubChem BioAssay (NCI).
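Values below derive from 48-hour exposures of cells grown in 96-well plates, with endpoints linearly interpolated between the two concentrations bracketing the appropriate inhibition level. The concentration for full growth arrest is given as TGI.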

How the values were obtained:
Assay in all cases: growth of human tumour cells (NCI), 48 h
[1] = test system: HCT-116 colon
[2] = test system: MDA-MB-231 breast
[3] = test system: SW-620 colon
[4] = test system: LOX IMVI melanoma
[5] = test system: SNB-19 CNS
[6] = test system: MDA-N
[7] = test system: NCI-H23 lung
[8] = test system: UACC-62 melanoma
[9] = test system: CAKI-1 renal
[10] = test system: CCRF-CEM leukemia

| Structure (SMILES) | TGI [1] [µM] | TGI [2] [µM] | TGI [3] [µM] | TGI [4] [µM] | TGI [5] [µM] | TGI [6] [µM] | TGI [7] [µM] | TGI [8] [µM] | TGI [9] [µM] | TGI [10] [µM] |
| --- | --- | --- | --- | --- | --- | --- | --- | --- | --- | --- |
| O=C(O)c1ccccc1Sc1ccc(C=C2NC(=S)N(c3ccccc3)C2=O)s1 | > 100 | > 100 | > 100 | > 100 | > 100 | > 100 | > 100 | > 100 | > 100 |  |
| O=C1OCc2nc3c(c(-c4ccccc4C(F)(F)F)c21)C(=O)OC3 | > 100 |  | > 100 | > 100 | > 100 |  | > 100 | > 100 |  | > 100 |
| O=[N+]([O-])c1ccc(N=P(c2ccccc2)(c2ccccc2)c2ccccc2)n2nnnc12 |  |  | > 100 | > 100 | > 100 |  | > 100 | > 100 | > 100 | > 100 |
| COc1ccc2nc(-c3ccc(N)cc3)sc2c1 | > 100 | > 100 | > 100 |  | > 100 |  | > 100 | > 100 | > 100 | > 100 |
| CC[C@@]1(O)C(=O)OCc2c1cc1n(c2=O)Cc2c-1nc1ccc(N)cc1c2CC[Si](C)(C)C | 2.01 | 0.428 | 14.6 | < 0.01 | 11.1 | 1.62 | < 0.01 | < 0.0104 |  | < 0.01 |
| Cc1c(CCCl)c(Cl)n2c(nc3ccccc32)c1C#N | 0.891 | 17.9 | 0.801 | 0.878 | 5.88 |  | 2.37 | 2.51 | 2.25 | 3.36 |
| Cc1csc(NCc2ccc(Cl)cc2)n1 | > 100 | > 100 | > 100 | > 100 | > 100 | > 100 | > 100 |  | > 100 | > 100 |
| CN(CCNC(=O)c1nn(C)c2c1Cc1ccccc1-2)CCNC(=O)c1nn(C)c2c1Cc1ccccc1-2 | 28.9 | 38.1 | 38.9 | 34.8 | 31.8 | 29.4 | 32.3 | 28.7 | 47.4 |  |
| O=C1CC2(CCN(Cc3ccccc3)CC2)C(=O)N1N1CCCCC1 | > 100 | > 100 | > 100 | > 100 | > 100 | > 100 | > 100 | > 100 | > 100 |  |
| COC(=O)[C@@H]1CN(C(=O)Cc2ccccc2)C(=O)N1 | > 100 | > 100 | > 100 | > 100 | > 100 |  | > 100 | > 100 | > 100 | > 100 |
| Cc1nc2nnc(CCCCCCCCc3nnc4nc(C)[nH]n34)n2[nH]1 | > 100 | > 100 | > 100 | > 100 | > 100 | > 100 | > 100 |  | > 100 | > 100 |
| CC/C(CC(=O)CCC(=O)Nc1ccc(C)c(C)c1)=N\NC(=O)c1cc2ccccc2cc1O | > 100 |  | > 100 | 81.1 | > 100 |  | 89.4 | 43.9 | > 100 | > 100 |
